How the values were obtained:
[1] = system: Human peripheral blood mononuclear cells (PBMC); experiment: Cytokine Induction in Human Cells; type: cell-based; conditions: 21-24 hours culture, lowest concentration inducing at least 2× negative control; for MEC to Induce Cytokine IFN-alpha: IFN-alpha by ELISA; for MEC to Induce Cytokine IFN-gamma: IFN-gamma by multiplex bead assay; for MEC to Induce Cytokine TNF-alpha: TNF-alpha by multiplex bead assay
Protocol: Cytokine Induction in Human Cells
Whole blood was obtained from healthy human donors and collected by venipuncture into vacutainer tubes or syringes containing EDTA. Human peripheral blood mononuclear cells (PBMC) were purified from the whole blood by density gradient centrifugation. Histopaque 1077 (15 mL, Sigma, St. Louis, MO) was transferred to 6×50 mL sterile polypropylene conical tubes. The Histopaque was overlayed with 15-25 mL of blood diluted 1:2 in Hank's Balanced Salts Solution (HBSS) (Gibco, Life Technologies, Grand Island, NY). The tubes were then centrifuged at 1370 rpm for 30 minutes at 20° C., with no brake (400×g, GH 3.8A Rotor).
The interface (buffy coat) containing the PBMC was collected and placed in a new sterile 50 mL conical polypropylene centrifuge tube. The PBMC were mixed with an equal volume of HBSS (about 20 mL from the interface and about 20 mL of HBSS), and then centrifuged at 1090 rpm, 10 minutes, 20° C., with brake (270×g, GH 3.8A Rotor). After completing centrifugation, the cells were resuspended in 2-3 mL ACK Red blood cell lysis buffer (ammonium chloride potassium solution, Gibco, Life Technologies) and incubated for 2-5 minutes at 20° C. Next, HBSS (40 mL) was added to the cells, and the sample was centrifuged at 270×g for 10 minutes at 20° C. The supernatant was decanted, and the cell pellet was resuspended in 5 mL AIM V Medium (Gibco, Life Technologies). Cell aggregates and debris were removed by filtering the cell solution through a BD Falcon 70 micron nylon cell strainer (BD Biosciences, San Jose, CA).
The number of viable cells was determined by counting with a Miltenyi FACS instrument (Miltenyi Biotec Inc., San Diego, CA) or by using a hemacytometer. For determining cell viability with a hemacytometer, the cells were diluted 1/10 in 0.4% trypan blue and HBSS (specifically, 50 microliter of trypan blue+40 microliter of HBSS+10 microliter of cell solution were added to a microfuge tube and mixed). Ten microliters of the diluted cells were then applied to the hemacytometer, and the number of viable PBMC were determined by microscopy.
The PBMC sample was then resuspended in 96-well plates at a concentration of 8×10^5 cells/well in 0.1 mL of AIM-V medium. Each compound was solubilized in DMSO to create a 3 mM stock solution. The stock solution was then further diluted with AIM-V medium to prepare the serial dilutions. The diluted compound (100 microliters) was then transferred to the PBMCs to achieve a testing set with final compound concentrations of 30, 10, 3.3, 1.1, 0.37, 0.12, 0.04, 0.01 micromolar or a testing set with final compound concentrations of 100, 33.3, 11.1, 3.7, 1.2, and 0.4 micromolar. The plates also had both positive and negative controls. The negative control wells contained only AIM-V medium with no example compound. The positive control wells contained a control set of imiquimod serially diluted to concentrations of 30, 10, 3.3, 1.1, 0.37, 0.12, 0.04, 0.01 micromolar or a control set of imiquimod serially diluted to concentrations of 100, 33.3, 11.1, 3.7, 1.2, and 0.4 micromolar. The concentrations used in the control set were selected to match the concentrations used in the testing set. The plates were then cultured at 37° C./5% CO2 for 21-24 hours. Cell-free supernatants were harvested by centrifuging the 96-well plates at 2100 rpm, 23° C. for 10 minutes. Approximately 160 microliters of the supernatant was then stored in a NUNC 96-well plate, covered with the compression cap and stored at −80° C. until the cytokine analysis was done.
IFN-alpha cytokine levels (picograms/mL) were measured by ELISA (human IFN-alpha, pan specific, Mabtech, Cincinnati, OH). IFN-gamma and TNF-alpha levels (picograms/mL) were measured by multiplex bead assay (magnetic beads, R & D Systems Minneapolis, MN) according to the manufacturer's instructions. […]

[2] = system: Human dermal adult fibroblast cells; experiment: Cell Viability Determination (resazurin); type: cell-based; conditions: human dermal adult fibroblasts, compound 200 micromolar, 24 hours, normalized to untreated vehicle control, n=3
Protocol: Cell Viability Determination
Each compound was individually dissolved in DMSO and then in Dulbecco's minimum essential cell culture medium (DMEM, Gibco, Life Technologies) containing 10% fetal bovine serum (Corning Life Sciences, Tewksbury, MA) and 1× antibiotic/antimycotic solution. The final DMSO concentration in a 200 micromolar compound concentration was 0.5%.
Human dermal adult fibroblast cells (ATCC, Manassas, VA) were seeded (7,500 cells/wells in a 96-well tissue culture polystyrene plate) in 100 microliters of DMEM cell culture medium containing 10% fetal bovine serum and 1× antibiotic/antimycotic solution. After approximately 18-24 hours of incubation in a humidified environment at 37° C. with 5% CO2, the wells were individually treated with one of the compounds in cell culture medium at a compound concentration of 200 micromolar or with 0.5% DMSO in cell culture medium as the vehicle (untreated) control. The cells were then incubated for 24 hours in a humidified environment at 37° C. with 5% CO2. Cell viability was determined using resazurin according to the procedure described by O'Brien, J. et al., European Journal of Biochemistry, 2000, 267(17): 5421-5426. Cell viability was normalized to the vehicle (untreated) cell control. In Table 14, the mean percent cell viability (n=3) is reported for the compounds of Examples 1, 2, 4, 5 and for 1-[(4-amino-1H-imidazo[4,5-c]quinoline-1-yl)methyl] cyclopentanol (the Comparative Example compound).

Structure (SMILES)	MEC to Induce Cytokine IFN-alpha [1] [µM]	MEC to Induce Cytokine IFN-gamma [1] [µM]	MEC to Induce Cytokine TNF-alpha [1] [µM]	Mean Percent Cell Viability [2] [%]
C[C@@H](n1cnc2c(N)nc3ccccc3c21)C1(O)CC=CC1 [Example 3, 1-[(1R)-1-(4-aminoimidazo[4,5-c]quinolin-1-yl)ethyl]cyclopent-3-en-1-ol]	3.3	3.3	3.3	–
CC[C@H](n1cnc2c(N)nc3ccccc3c21)C1(O)CCCC1 [Example 5, 1-[(1S)-1-(4-aminoimidazo[4,5-c]quinolin-1-yl)propyl]cyclopentanol]	>30	>30	>30	78
CC[C@@H](n1cnc2c(N)nc3ccccc3c21)C1(O)CCCC1 [Example 4, 1-[(1R)-1-(4-aminoimidazo[4,5-c]quinolin-1-yl)propyl]cyclopentanol]	1.1	1.1	0.37	86
Nc1nc2ccccc2c2c1ncn2CC1(O)CCCC1 [Comparative Example, 1-[(4-amino-1H-imidazo[4,5-c]quinoline-1-yl)methyl]cyclopentanol, reference compound]	10	10	10	2.1
C[C@H](n1cnc2c(N)nc3ccccc3c21)C1(O)CCCC1 [Example 2, 1-[(1S)-1-(4-aminoimidazo[4,5-c]quinolin-1-yl)ethyl]cyclopentanol]	>30	>30	>30	81
C[C@@H](n1cnc2c(N)nc3ccccc3c21)C1(O)CCCC1 [Example 1, 1-[(1R)-1-(4-aminoimidazo[4,5-c]quinolin-1-yl)ethyl]cyclopentanol]	3.3	3.3	3.3	80
CC[C@@H](n1cnc2c(N)nc3ccccc3c21)C1(O)CCCCC1 [Example 6, 1-[(1R)-1-(4-aminoimidazo[4,5-c]quinolin-1-yl)propyl]cyclohexanol]	1.2	1.2	1.2	–
